For 30 molecules, mortality results are on record in patent publication US9523100B2, “Pesticidal compositions and related methods” (DOW AGROSCIENCES LLC, priority 2013, dated 2016).

Assay [1] has as its system Green Peach Aphid (GPA) (Myzus persicae) (MYZUPE). The assay can be described thus: Bioassay for Green Peach Aphid (GPA), foliar spray on cabbage seedlings. Format: in vivo. Particulars: 72 h, 200 ppm foliar spray on cabbage seedlings, graded after three days, Abbott corrected % control, read-out: GPA 200 ppm, % Control (or Mortality) rating. In short, it runs like this: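 Foliar spray test: 200 ppm solutions (0.025% Tween 20 in water, 20% acetone/methanol) applied to both leaf sides of aphid-infested cabbage seedlings. After 3 days at about 25° C, live aphids per plant were counted; control corrected to solvent check via Abbott's formula.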

The subject of assay [2] is Sweetpotato Whitefly-Crawler (WF) (Bemisia tabaci) (BEMITA). Put plainly: Insecticidal test for Sweetpotato Whitefly-Crawler (WF) in foliar spray assay on cotton plants. In kind it is in vivo. Particulars: 216 h, 200 ppm foliar spray on cotton plants, graded after 9 days, Abbott corrected % control, read-out: WF 200 ppm, % Control (or Mortality) rating. The gist of the method: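 Whitefly nymph control on egg-infested cotton (eggs laid 4–5 days pre-treatment), foliar spray at 200 ppm test compound. Live late-stage nymphs counted microscopically 9 days later at ~25 °C; control calculated by Abbott's formula relative to acetone-diluent-sprayed plants.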

The structures appear in SMILES notation.

For the molecule `CCSC(=O)N(C)C(C)C(=O)N(CC)c1cn(-c2cccnc2)nc1Cl` (stereo not drawn) [Compound F79, S-Ethyl (1-((3-chloro-1-(pyridin-3-yl)-1H-pyrazol-4-yl)(ethyl)amino)-1-oxopropan-2-yl)(methyl) carbamothioate], the mortality at 200 ppm in assay [1] and in assay [2] was 0 to 80% in each case.

Turning to `CCN(C(=O)CCN1CCOC1=O)c1cn(-c2cccnc2)nc1Cl` [Compound F69, N-(3-Chloro-1-(pyridin-3-yl)-1H-pyrazol-4-yl)-N-ethyl-3-(2-oxooxazolidin-3-yl)propanamide], the mortality at 200 ppm in assay [1] and in assay [2] was 80 to 100% in each case.

For `CCSC(=O)N(C)CCC(=O)N(CC)c1cn(-c2cccnc2)nc1Cl` [Compound F40, S-Ethyl (3-((3-chloro-1-(pyridin-3yl)-1H-pyrazol-4-yl)(ethyl)amino)-3-oxopropyl)(methyl) carbamothioate], the mortality at 200 ppm in assay [1] and in assay [2] was 0 to 80% each time.

For the molecule `CCN(C(=O)CN1CCCC1=O)c1cn(-c2cccnc2)nc1Cl` [Compound F124, N-(3-Chloro-1-(pyridin-3-yl)-1H-pyrazol-4-yl)-N-ethyl-2-(2-oxopyrrolidin-1-yl)acetamide], the mortality at 200 ppm in assay [1] and in assay [2] was 80 to 100% throughout.

On to `CCN(C(=O)C1CCN(C(=O)C(F)(F)F)CC1)c1cn(-c2cccnc2)nc1Cl` [FA5, N-(3-Chloro-1-(pyridin-3-yl)-1H-pyrazol-4-yl)-N-ethyl-1-(2,2,2-trifluoroacetyl)piperidine-4-carboxamide], for which the mortality at 200 ppm fell in the range of 80 to 100% in assay [1] and 0 to 80% in assay [2].

Turning to `CCN(C(=O)C1CN(C(=O)CC(F)(F)F)C1)c1cn(-c2cccnc2)nc1Cl` [Compound P24, N-(3-Chloro-1-(pyridin-3-yl)-1H-pyrazol-4-yl)-N-ethyl-1-(3,3,3-trifluoropropanoyl)azetidine-3-carboxamide], the mortality at 200 ppm in assay [1] fell in the range of 80 to 100%; in assay [2], 0 to 80%.

Take `CCN(C(=O)CCC(=O)NCC1CC1)c1cn(-c2cccnc2)nc1Cl` [Compound F70, N1-(3-Chloro-1-(pyridin-3-yl)-1H-pyrazol-4-yl)-N4-(cyclopropylmethyl)-N1-ethylsuccinamide]: the mortality at 200 ppm in assay [1] and in assay [2] was 80 to 100% throughout.

Consider `CCN(C(=O)CCC1CN(Cc2ccc(C(F)(F)F)cc2)C1=O)c1cn(-c2cccnc2)nc1Cl` (stereo not drawn) [Compound F129], for which the mortality at 200 ppm in assay [1] lay in the range of 0 to 80%; in assay [2], 80 to 100%.

On to `CCN(C(=O)CCC(=O)N(C)OC)c1cn(-c2cccnc2)nc1Cl` [Compound F78, N1-(3-Chloro-1-(pyridin-3-yl)-1H-pyrazol-4-yl)-N1-ethyl-N4-methoxy-N4-methylsuccinamide], for which the mortality at 200 ppm in assay [1] and in assay [2] was 80 to 100% each time.

As for `CCN(C(=O)C1CCCN(C(=O)CCC#N)C1)c1cn(-c2cccnc2)nc1Cl` (stereo not drawn) [FA44, N-(3-chloro-1-(pyridin-3-yl)-1H-pyrazol-4-yl)-1-(3-cyanopropanoyl)-N-ethylpiperidine-3-carboxamide], the mortality at 200 ppm in assay [1] and in assay [2] was 80 to 100% in each case.

On to `CCN(C(=O)CCNC(=O)C1CCN(C(C)=O)CC1)c1cn(-c2cccnc2)nc1Cl` [Compound F112, 1-Acetyl-N-(3-((3-chloro-1-(pyridin-3-yl)-1H-pyrazol-4-yl)(ethyl)amino)-3-oxopropyl)piperidine-4-carboxamide], for which the values for the mortality at 200 ppm in assay [1] and in assay [2] were 0 to 80% and 80 to 100%, respectively.

Regarding `CCN(C(=O)CCN(C)C(=O)CCC(F)(F)F)c1cn(-c2cccnc2)nc1Cl` [Compound F94, N-(3-((3-Chloro-1-(pyridin-3-yl)-1H-pyrazol-4-yl)(ethyl)amino)-3-oxopropyl)-4,4,4-trifluoro-N-methylbutanamide], the mortality at 200 ppm in assay [1] and in assay [2] was 80 to 100% each time.

As for `CCN(C(=O)C(C)C/C(C)=N\OCCC1CC1(F)F)c1cn(-c2cccnc2)nc1Cl` (stereo not drawn) [FA57, (Z)-N-(3-Chloro-1-(pyridin-3-yl)-1H-pyrazol-4-yl)-4-((2-(2,2-difluorocyclopropyl)ethoxy)imino)-N-ethyl-2-methylpentanamide], the values for the mortality at 200 ppm in assay [1] and in assay [2] were 80 to 100% and 0 to 80%, respectively.

On to `CCN(C(=O)C1CCN(C(=O)c2cccnc2)C1)c1cn(-c2cccnc2)nc1Cl` (stereo not drawn) [FA12, N-(3-Chloro-1-(pyridin-3-yl)-1H-pyrazol-4-yl)-N-ethyl-1-nicotinoylpyrrolidine-3-carboxamide], for which the mortality at 200 ppm in assay [1] and in assay [2] was 0 to 80% throughout.

For the molecule `CN(C(=O)CN1CCOC1=O)c1cn(-c2cccnc2)nc1Cl` [Compound F111, N-(3-Chloro-1-(pyridin-3-yl)-1H-pyrazol-4-yl)-N-methyl-2-(2-oxooxazolidin-3-yl)acetamide], the mortality at 200 ppm in assay [1] and in assay [2] was 80 to 100% in each case.

On to `CCN(C(=O)CCC(=O)N(C)Cc1ccc(F)cc1)c1cn(-c2cccnc2)nc1Cl` [Compound F118, N1-(3-Chloro-1-(pyridin-3-yl)-1H-pyrazol-4-yl)-N1-ethyl-N4-(4-fluorobenzyl)-N4-methylsuccinamide], for which the mortality at 200 ppm in assay [1] and in assay [2] was 80 to 100% in each case.

Regarding `CCN(C(=O)C(C)C/C=N/OCCC1CC1(F)F)c1cn(-c2cccnc2)nc1Cl` (stereo not drawn) [FA60, (E)-N-(3-Chloro-1-(pyridin-3-yl)-1H-pyrazol-4-yl)-4-((2-(2,2-difluorocyclopropyl)ethoxy)imino)-N-ethyl-2-methylbutanamide], the mortality at 200 ppm in assay [1] and in assay [2] was 80 to 100% throughout.

Take `CN(C(=O)CCC(=O)N1CCCCC1)c1cn(-c2cccnc2)nc1Cl` [Compound F33, N-(3-Chloro-1-(pyridin-3-yl)-1H-pyrazol-4-yl)-N-methyl-4-oxo-4-(piperidin-1-yl)butanamide]: the mortality at 200 ppm in assay [1] lay in the range of 0 to 80%; in assay [2] it was 80 to 100%.

Regarding `CN(C(=O)CN1CCCCCC1=O)c1cn(-c2cccnc2)nc1Cl` [Compound F22, N-(3-Chloro-1-(pyridin-3-yl)-1H-pyrazol-4-yl)-N-methyl-2-(2-oxoazepan-1-yl)acetamide], the mortality at 200 ppm was in the range of 0 to 80% in assay [1] and 80 to 100% in assay [2].

In the case of `CCN(C(=O)CC1CN(Cc2ccc(C(F)(F)F)nc2)C1=O)c1cn(-c2cccnc2)nc1Cl` (stereo not drawn) [Compound F117], the mortality at 200 ppm in assay [1] and in assay [2] was 80 to 100% in each case.

With `CCN(C(=O)C1CCCCN1C(C)=O)c1cn(-c2cccnc2)nc1Cl` (stereo not drawn) [FA32, 1-Acetyl-N-(3-chloro-1-(pyridin-3-yl)-1H-pyrazol-4-yl)-N-ethylpiperidine-2-carboxamide], the mortality at 200 ppm in assay [1] and in assay [2] was 0 to 80% each time.

As for `CCN(C(=O)CCC1CN(C)C1=O)c1cn(-c2cccnc2)nc1Cl` (stereo not drawn) [Compound F119, N-(3-Chloro-1-(pyridin-3-yl)-1H-pyrazol-4-yl)-N-ethyl-3-(1-methyl-2-oxoazetidin-3-yl)propanamide], the mortality at 200 ppm in assay [1] and in assay [2] was 80 to 100% each time.

Take `CCN(C(=O)C(C)N(C)C(=O)N(C)C)c1cn(-c2cccnc2)nc1Cl` (stereo not drawn) [Compound F114, N-(3-Chloro-1-(pyridin-3-yl)-1H-pyrazol-4-yl)-N-ethyl-2-(1,3,3-trimethylureido)propanamide]: the mortality at 200 ppm in assay [1] and in assay [2] was 80 to 100% in each case.

On to `CN(C(=O)CN1CCCCC1=O)c1cn(-c2cccnc2)nc1Cl` [Compound F77, N-(3-Chloro-1-(pyridin-3-yl)-1H-pyrazol-4-yl)-N-methyl-2-(2-oxopiperidin-1-yl)acetamide], for which the mortality at 200 ppm in assay [1] and in assay [2] was 80 to 100% in each case.

With `CCN(C(=O)C(C)OC(=O)N(C)OC)c1cn(-c2cccnc2)nc1Cl` (stereo not drawn) [Compound F16, 1-((3-Chloro-1-(pyridin-3-yl)-1H-pyrazol-4-yl)(ethyl)amino)-1-oxopropan-2-yl methoxy(methyl) carbamate], the mortality at 200 ppm in assay [1] and in assay [2] was 80 to 100% in each case.

For the molecule `CCN(C(=O)C1CCCN(C(C)=O)C1)c1cn(-c2cccnc2)nc1Cl` (stereo not drawn) [FA45, 1-Acetyl-N-(3-chloro-1-(pyridin-3-yl)-1H-pyrazol-4-yl)-N-ethylpiperidine-3-carboxamide], the mortality at 200 ppm lay within 80 to 100% in assay [1] and 0 to 80% in assay [2].

On to `CCN(C(=O)C1CCN(C(=O)CCC#N)C1)c1cn(-c2cccnc2)nc1Cl` (stereo not drawn) [FA11, N-(3-Chloro-1-(pyridin-3-yl)-1H-pyrazol-4-yl)-1-(3-cyanopropanoyl)-N-ethylpyrrolidine-3-carboxamide], for which the mortality at 200 ppm in assay [1] and in assay [2] was 80 to 100% each time.

With `CCN(C(=O)CC/C(C)=N/OCCCCC(F)(F)F)c1cn(-c2cccnc2)nc1Cl` [FA4, (E/Z)-N-(3-Chloro-1-(pyridin-3-yl)-1H-pyrazol-4-yl)-N-ethyl-4-(((5,5,5-trifluoropentyl)oxy)imino)pentanamide], the mortality at 200 ppm in assay [1] was in the range of 0 to 80%; in assay [2] it was 80 to 100%.

As for `CC(CCC(=O)N(C)c1cn(-c2cccnc2)nc1Cl)=NOC(C)C` (mixture of isomers) [Compound F130, (E/Z)-N-(3-Chloro-1-(pyridin-3-yl)-1H-pyrazol-4-yl)-4-(isopropoxyimino)-N-methylpentanamide], the mortality at 200 ppm in assay [1] and in assay [2] was 80 to 100% throughout.

Regarding `CCN(C(=O)CC/C(C)=N/Oc1cccc(C(F)(F)F)n1)c1cn(-c2cccnc2)nc1Cl` [Compound F59, (E/Z)-N-(3-Chloro-1-(pyridin-3-yl)-1H-pyrazol-4-yl)-N-ethyl-4-(((6-(trifluoromethyl)pyridin-2-yl)oxy)imino)pentanamide], the mortality at 200 ppm in assay [1] and in assay [2] was 80 to 100% in each case.

As a reminder, the mortality is the share of the test organisms that died.
